Assay results reported in patent EP0863156A1, “Peptides useful as somatostatin antagonists” (American Cyanamid Company, priority 1997, dated 1998).
Bridge positions count the residues as written; N and C are the ends. Square brackets hold non-standard residues; d marks the D form. Peptide text beside a SMILES is read from it.

Key:
[1] = biological target: T1, SSTR2 (Rattus norvegicus, UniProt P30680); assay: Competitive binding of 125I labeled S-14 to membranes of cells expressing transfected SSTR2 (SPA); parameters: expressed in transfected cells
Experimental: Membrane preparation. Tissue culture cell lines expressing transfected cDNA clones of SSTR2 and SSTR5 are used as a source of plasma membranes which specifically bind ^125I labeled S-14 (Amersham, Arlington Heights, IL). Cells are removed from culture dishes by incubation at 4°C for 5 minutes in PBS containing 1 mM EDTA, spun down (2,000 rpm, 5') and resuspended in 15 mL homogenization buffer (1 mM sodium bicarbonate pH 7.2, 1 mM EDTA, 1 mM EGTA and the following protease inhibitors: leupeptin and aprotenin at 5 µg/mL and benzamidine and bacitracin at 100 µg/mL). Cells are given 20 strokes with a Dounce homogenizer on ice and spun at 2000 rpm for 10 minutes. Membranes are isolated from the supernatant by centrifugation at 17,000 rpm for 30 minutes. The membrane pellet is washed once in 15 mL homogenization buffer and once in storage buffer (25 mM Tris pH 7.4 containing protease inhibitors). […] The membrane pellet is resuspended in storage buffer, measured for protein concentration (BioRad, CA) and stored at -80°C.
Binding assay. […] Bound radioligand is determined by counting in a Microbeta Liquid Scintillation counter (Wallac, Gaithersburg, MD). Binding data is plotted and IC50 and Ki values are calculated for test compounds using Prism software (Graphpad Software Inc., San Diego, CA) and are shown in Table V. Binding is expressed as Ki, µM.

[2] = biological target: T1, SSTR2; assay: cAMP accumulation in forskolin-stimulated GH4C1/SSTR2 cells (SPA radioimmunoassay); format: cell-based; parameters: expressed in transfected cells; host or cells: GH4C1 rat pituitary tumor cells; settings: GH4-C1; test peptide 100 µM; percent reversal of SSTR2 activation by SRIF or MK678; 0% = forskolin plus agonist, 100% = forskolin alone; read-out: cAMP Assay Intrinsic activity
Experimental: This is the basis of a common assay for SRIF agonists and antagonists, whereby SRIF agonists reduce artificially stimulated cAMP levels, and SRIF antagonists reverse the effect of SRIF. […] This increases the response to SRIF and provides a greater dynamic range for the measurement of SRIF antagonist activity.
Stimulation of cells. GH4C1/SSTR2 cells, grown in DMEM with 10% bovine serum, are released from a tissue culture dish by incubation for several minutes at 37° C with PBS containing 0.5 mM EDTA. Cells are washed in induction buffer (PBS containing 100 µM IBMX (an inhibitor of cAMP breakdown) and 2 mM CaCl2) at room temperature, and resuspended at 2 x 10^6/mL in induction buffer. Into each well of a 96-well tray are added 50 µL of a 2 X concentration of stimulants in induction buffer. […] To initiate stimulation of the cells, 50 µL (100,000) cells are added to each well, mixed by shaking 10 seconds on a plate shaker and placed at 37° C for 15 minutes. Stimulation is arrested and cells are lysed by adding 15 µL 0.33 N HCI to each well and incubating the plate for 30 minutes at 37° C. Samples are neutralized by addition of 15 µL 0.25 N NaOH/50 mM Hepes pH 7.4. Baseline cAMP levels are determined in samples with no added forskolin or SRIF, and each treatment is performed in triplicate.
cAMP assay. To measure accumulated cAMP in the samples, a radioimmunoassay is employed. The scintillation proximity assay (SPA, Amersham, Arlington Heights, IL) allows the rapid measurement of ^125I cAMP bound to a specific antibody without separating bound radioligand from free radioligand. Each of the following reagents (15 µL) are added per well in a 96-well tray: supernatants from the cell stimulation; ^125I cAMP; SPA beads conjugated to monkey anti-rabbit IgG antibodies; and rabbit anti-cAMP antibodies. For the standard curve, known amounts of cAMP (0.2 - 12.8 pmol) are added in place of cell supernatants. The 96-well tray is sealed, shaken at room temperature overnight and measured for bound radioligand in a MicroBeta liquid scintillation counter (Wallac, Gaithersburg. MD).
The intrinsic activity of an SRIF antagonist is the percent reversal of the SSTR2 activation by SRIF or MK678, wherein 0% is defined by cAMP levels in samples treated with forskolin plus SRIF or MK678 and 100% is the cAMP level measured after treatment with forskolin alone. Therefore, increased intrinsic activity of a test compound indicates increased antagonist activity of said test compound.
An inverse agonist is a compound that is not only a pure antagonist (i.e. lacking agonist activity), but also blocks the constitutive activity of an unoccupied receptor. One indication of inverse agonist activity is the ability of a SRIF antagonist to increase cAMP levels in the absence of added SRIF.

T1 sequence (P30680 whole entry): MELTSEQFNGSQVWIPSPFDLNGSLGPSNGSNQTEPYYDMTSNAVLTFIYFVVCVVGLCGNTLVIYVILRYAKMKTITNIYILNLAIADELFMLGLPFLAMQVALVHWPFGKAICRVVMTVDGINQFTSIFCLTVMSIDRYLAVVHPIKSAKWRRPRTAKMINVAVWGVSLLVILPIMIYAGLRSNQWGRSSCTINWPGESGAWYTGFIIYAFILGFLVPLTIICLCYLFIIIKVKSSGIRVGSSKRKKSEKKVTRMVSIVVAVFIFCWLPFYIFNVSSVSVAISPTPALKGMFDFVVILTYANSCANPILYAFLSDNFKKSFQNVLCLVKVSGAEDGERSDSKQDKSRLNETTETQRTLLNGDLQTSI

SMILES: CC[C@@H](C)[C@H]1NC(=O)[C@@H](Cc2ccccc2)NC(=O)[C@@H](Cc2c[nH]cn2)NC(=O)[C@@H](N)CSSC[C@@H](C(=O)O)NC(=O)[C@@H](Cc2ccccc2)NC(=O)[C@@H](Cc2c[nH]c3ccccc23)NC(=O)[C@@H](CCCNC(=N)N)NC1=O [Peptide 34, ss C-h-f-i-r-w-f-C] (H-C[dH][dF][dI][dR][dW][dF]C-OH; disulfide 1-8)
- Ki [1]: 1950 nM
- Emax [2]: 25.9%
